The nature of series [1]: Brain and plasma concentrations after oral gavage in rat, sampling to 4 hours (Table 4). The class given is in vivo. The following applies: Table 4 (4 hours); for Kp at 4 h: brain/plasma, po, 50 mg/kg.
Series [2] deals with T1, EPHA6 (Homo sapiens, UniProt Q9UF33).
T1 sequence (Q9UF33 23-1036): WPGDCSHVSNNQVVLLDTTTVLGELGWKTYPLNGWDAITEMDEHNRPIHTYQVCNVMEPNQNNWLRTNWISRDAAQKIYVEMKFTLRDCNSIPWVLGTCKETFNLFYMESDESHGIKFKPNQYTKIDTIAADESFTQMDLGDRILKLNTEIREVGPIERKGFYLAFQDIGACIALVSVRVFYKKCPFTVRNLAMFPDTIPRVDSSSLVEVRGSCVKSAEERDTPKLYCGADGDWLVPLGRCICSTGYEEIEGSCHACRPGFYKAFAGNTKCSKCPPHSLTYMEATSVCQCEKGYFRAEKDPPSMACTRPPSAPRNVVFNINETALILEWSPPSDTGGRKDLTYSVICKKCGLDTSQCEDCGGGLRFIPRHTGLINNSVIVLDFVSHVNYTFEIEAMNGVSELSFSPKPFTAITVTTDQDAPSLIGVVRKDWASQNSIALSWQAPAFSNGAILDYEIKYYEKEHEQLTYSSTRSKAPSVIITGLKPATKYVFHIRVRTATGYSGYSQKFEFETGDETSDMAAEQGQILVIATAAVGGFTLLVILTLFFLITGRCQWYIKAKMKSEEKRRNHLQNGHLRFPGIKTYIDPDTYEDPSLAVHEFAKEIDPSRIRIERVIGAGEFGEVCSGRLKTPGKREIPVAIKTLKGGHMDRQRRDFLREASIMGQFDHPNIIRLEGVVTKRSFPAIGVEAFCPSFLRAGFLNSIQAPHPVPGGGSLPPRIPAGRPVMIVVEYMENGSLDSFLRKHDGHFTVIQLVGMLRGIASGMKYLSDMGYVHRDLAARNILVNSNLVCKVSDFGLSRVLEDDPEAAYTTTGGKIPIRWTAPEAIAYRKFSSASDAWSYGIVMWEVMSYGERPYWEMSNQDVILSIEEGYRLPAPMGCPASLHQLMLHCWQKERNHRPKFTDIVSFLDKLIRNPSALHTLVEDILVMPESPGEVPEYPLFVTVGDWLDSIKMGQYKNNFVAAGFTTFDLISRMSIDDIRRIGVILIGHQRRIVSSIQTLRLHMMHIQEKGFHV
The series can be described thus: Kinome screen at 300 nM (qPCR competition binding). Also noted: purchased DiscoveRx; host or cells: E. coli BL21-derived (T7 phage) or HEK-293. The following applies: result in words.

The target in series [3] is T1, EPHA6. In words: Binding constants (Kd) for EPHA6, kinase competition binding with qPCR readout.
Series [4] can be described thus: Brain concentrations after PO administration in rat, peak at 8 hours (Table 5). The format is in vivo. As to conditions: Table 5 (8 hours); for Kp at 8 h: brain/plasma, po, 50 mg/kg.
Setting [5] is: male, Sprague-Dawley (SD), brain tissue, PO 50 mg/kg.
The mark [6] stands for this setting: Sprague-Dawley, brain, PO 50 mg/kg.

The results in this text go back to patent US20180050993A1, “NOVEL FLUORINATED DERIVATIVES AS EGFR INHIBITORS USEFUL FOR TREATING CANCERS” (Trillium Therapeutics Inc., priority 2015, published 2018).

pKd: −log10 of the molar value. Where a name gives a salt, the structure may show the parent alone. Read-outs that look alike come from different tables or passages of the source.

Regarding `Fc1ccc(Nc2ncnc3cc(OCCOC(F)F)c(OCCOC(F)F)cc23)c(F)c1Cl` [Compound 2D•HCl, N-(3-chloro-2,4-difluoro-phenyl)-6,7-bis[2-(difluoromethoxy)ethoxy]quinazolin-4-amine], the AUClast in series [1] (brain tissue, PO 50 mg/kg) worked out at 25272 ng·h/g; in series [4] (brain, PO 50 mg/kg), 99996 ng·h/g. For the same compound, the Cmax worked out at 8040 ng/g in series [1] (setting [5]) and 6340 ng/g in series [4] (setting [6]). In addition, the time to peak (Tmax) in series [1] (setting [5]) turned out to be 4 h; in series [4] (setting [6]), 8 h. For the same compound, the Kp at 4 h was found to be 2.05 in series [1] (male, Sprague-Dawley (SD), read-out: AUCLast Ratio (Brain/Plasma)) and 2.01 in series [1] (male, Sprague-Dawley (SD), read-out: Cmax Ratio (Brain/Plasma)). Moreover, on EPHA6 [2], the “selectivity over erlotinib for the ephrin receptor kinase, EPHA6” value is recorded as “did show selectivity over erlotinib”. This compound also showed a negative logarithm of the Kd (pKd) at EPHA6 [3] of 8.60. Also, the Kp at 8 h in series [4] (Sprague-Dawley, read-out: AUCLast Ratio (Brain/Plasma)) was determined as 1.92; in series [4] (Sprague-Dawley, read-out: Cmax Ratio (Brain/Plasma)) it was 2.07. This compound also registered an AUCInf in series [4] (brain, PO 50 mg/kg) of 101339 ng·h/g.
